Test results from PubChem BioAssay (NCI).
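The compound was tested at five concentrations on cells cultured in 96-well plates, with a 48-hour exposure period. GI50 = concentration required for 50% inhibition of growth. TGI denotes the concentration required for complete inhibition of growth.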

Experiments:
Experiment in all cases: NCI-60 cell line screen, 48 h
[1] = system: CCRF-CEM leukemia
[2] = system: U251 CNS
[3] = system: NCI-H23 lung
[4] = system: SK-OV-3 ovarian
[5] = system: OVCAR-5 ovarian
[6] = system: NCI-H226 lung
[7] = system: OVCAR-3 ovarian
[8] = system: M14 melanoma

O=C1CC23CC(=O)CC2(C1)c1ccccc1C3=O (stereo unspecified) was tested, and the TGI [1] was > 100 µM, the TGI [2] was > 100 µM and the TGI [3] was > 100 µM. For the same compound, the TGI [4] was > 100 µM, the TGI [5] was > 100 µM and the TGI [6] was > 100 µM. The TGI [7] was > 100 µM and the TGI [8] was > 100 µM.

With O=CN/C=C/c1ccccc1O the TGI [1] was > 100 µM, the TGI [2] was > 100 µM and the TGI [3] was > 100 µM. For the same compound, the TGI [4] was > 100 µM, the TGI [5] was > 100 µM and the TGI [6] was > 100 µM. The TGI [7] was > 100 µM and the TGI [8] was > 100 µM.

In the case of O=C(Nc1ccc(Cl)cc1Cl)/C(Cl)=C1/Sc2ccccc2NC1=O, the TGI [1] is reported as 83.4 µM, the TGI [2] is reported as > 100 µM and the TGI [3] is reported as 55 µM. The TGI [4] was 80.4 µM, the TGI [5] was > 100 µM and the TGI [6] was 79.2 µM. The TGI [8] was > 100 µM.

O=[N+]([O-])c1ccc(C2N3CCCCC3[C@@H]3c4[nH]c5ccccc5c4CCN23)cc1 (stereo partly specified) was tested, and the TGI [1] was 64.4 µM, the TGI [2] was 58.1 µM and the TGI [3] was 35.7 µM. The TGI [4] was > 100 µM, the TGI [5] was 56.5 µM and the TGI [7] was 38.6 µM. The TGI [8] was 38.9 µM.

For O=C(Cc1nc2ccccc2s1)NC12CC3CC(CC(C3)C1)C2, the TGI [1] was > 100 µM, the TGI [2] was > 100 µM and the TGI [3] was > 100 µM. For the same compound, the TGI [4] was > 100 µM, the TGI [6] was > 100 µM and the TGI [8] was > 100 µM.

In the case of O=c1[nH]c(C2CCCCC2)nc2cc(Cl)ccc12, the TGI [2] is reported as > 100 µM, the TGI [3] is reported as > 100 µM and the TGI [4] is reported as > 100 µM. The TGI [5] was > 100 µM, the TGI [6] was > 100 µM and the TGI [7] was > 100 µM.

In the case of C=C1CCC2C(C)(CO)C(O)CCC2(C)C1CC(O)C1=CCOC1=O (stereo unspecified), the TGI [1] is reported as 84.3 µM, the TGI [2] is reported as 50.7 µM and the TGI [3] is reported as > 100 µM. For the same compound, the TGI [4] was > 100 µM, the TGI [5] was > 100 µM and the TGI [6] was > 100 µM. The TGI [7] was 58.9 µM and the TGI [8] was > 100 µM.

For Cc1ccc(S(=O)(=O)NC(=O)Nc2nc(Cl)cc(Cl)n2)cc1, the TGI [1] was > 100 µM, the TGI [2] was > 100 µM and the TGI [3] was > 100 µM. The TGI [4] was > 100 µM, the TGI [5] was > 100 µM and the TGI [6] was > 100 µM. For the same compound, the TGI [7] was > 100 µM and the TGI [8] was > 100 µM.

With C/C(CC(=O)Nc1ccc([N+](=O)[O-])cc1)=N/N=C(N)N the TGI [1] was > 100 µM, the TGI [2] was > 100 µM and the TGI [3] was > 100 µM. The TGI [4] was > 100 µM, the TGI [5] was > 100 µM and the TGI [6] was > 100 µM. For the same compound, the TGI [7] was > 100 µM and the TGI [8] was > 100 µM.

For CC(C)(C)C1CCN(C(=O)c2ccccc2)CC1, the TGI [1] was > 100 µM, the TGI [2] was > 100 µM and the TGI [3] was > 100 µM. For the same compound, the TGI [4] was > 100 µM, the TGI [5] was > 100 µM and the TGI [6] was > 100 µM. The TGI [7] was > 100 µM and the TGI [8] was > 100 µM.

In the case of Cc1ccccc1C(C#N)/C(=N/NC(=O)C(=O)NN)C(=O)Nc1cccc(C(F)(F)F)c1 (stereo unspecified), the TGI [1] is reported as > 100 µM, the TGI [2] is reported as > 100 µM and the TGI [3] is reported as > 100 µM. For the same compound, the TGI [5] was > 100 µM, the TGI [6] was > 100 µM and the TGI [7] was > 100 µM. For the same compound, the TGI [8] was > 100 µM.

In the case of COC(=O)CCC(=O)C(C#N)c1ccc(Cl)cc1Cl (stereo unspecified), the TGI [1] is reported as > 100 µM, the TGI [2] is reported as > 100 µM and the TGI [3] is reported as > 100 µM. The TGI [4] was > 100 µM, the TGI [6] was > 100 µM and the TGI [7] was > 100 µM. For the same compound, the TGI [8] was > 100 µM.

O=c1nc2[nH]nc(-c3ccccc3)c2n[nH]1 was tested, and the TGI [1] was > 100 µM, the TGI [2] was > 100 µM and the TGI [3] was > 100 µM. The TGI [5] was > 100 µM, the TGI [6] was > 100 µM and the TGI [7] was > 100 µM. The TGI [8] was > 100 µM.

NC(CCCNCc1ccccc1O)C(=O)O (stereo unspecified) was tested, and the TGI [1] was > 100 µM, the TGI [3] was > 100 µM and the TGI [4] was > 100 µM. For the same compound, the TGI [5] was > 100 µM, the TGI [6] was > 100 µM and the TGI [7] was > 100 µM. The TGI [8] was > 100 µM.

Work on Cc1ccc(C2CC(c3cccc(Nc4ccncc4)c3)=NN2c2ccc(Cl)cc2)cc1 (stereo unspecified) yielded a GI50 [1] of 2.64 µM, a TGI [1] of 7.66 µM and a GI50 [2] of 1.85 µM. It also gave a TGI [2] of 3.64 µM, a GI50 [3] of 1.77 µM and a TGI [3] of 3.39 µM. The GI50 [4] was 1.65 µM, the TGI [4] was 3.17 µM and the GI50 [5] was 1.61 µM. For the same compound, the TGI [5] was 2.99 µM, the GI50 [6] was 1.87 µM and the TGI [6] was 3.76 µM. The GI50 [7] was 1.69 µM, the TGI [7] was 3.06 µM and the GI50 [8] was 1.73 µM. The TGI [8] was 3.39 µM.

With N#Cc1ccccc1/C=N/O the TGI [1] was > 85 µM, the TGI [2] was > 100 µM and the TGI [3] was > 100 µM. The TGI [4] was > 100 µM, the TGI [5] was > 100 µM and the TGI [6] was > 100 µM. The TGI [7] was > 100 µM and the TGI [8] was > 100 µM.

For COC(=O)/C(Cl)=C1/CC1COCc1ccccc1 (stereo unspecified), the TGI [1] was 43.5 µM, the TGI [3] was 88.2 µM and the TGI [4] was > 100 µM. The TGI [5] was > 100 µM, the TGI [6] was 81.9 µM and the TGI [7] was 52.5 µM. For the same compound, the TGI [8] was 31.2 µM.

In the case of COc1cc([C@@H]2c3cc4c(cc3[C@@H](NC(=O)c3ccc([N+](=O)[O-])cc3)C3COC(=O)[C@@H]32)OCO4)cc(OC)c1O (stereo partly specified), the TGI [2] is reported as 1.21 µM, the TGI [3] is reported as 1.46 µM and the TGI [4] is reported as 1.89 µM. For the same compound, the TGI [5] was 76.2 µM, the TGI [6] was 1.82 µM and the TGI [7] was 4.81 µM. The TGI [8] was > 100 µM.

C/C(CN1C(=O)c2ccccc2C1=O)=N\NS(C)(=O)=O was tested, and the TGI [1] was > 100 µM, the TGI [2] was > 100 µM and the TGI [3] was > 100 µM. For the same compound, the TGI [4] was > 100 µM, the TGI [5] was > 100 µM and the TGI [6] was > 100 µM. For the same compound, the TGI [7] was > 100 µM and the TGI [8] was > 100 µM.

In the case of Cn1c(-c2ccccc2)c/c(=N\NS(C)(=O)=O)c2cc(S(=O)(=O)O)ccc21, the TGI [1] is reported as > 100 µM, the TGI [2] is reported as > 100 µM and the TGI [3] is reported as > 100 µM. For the same compound, the TGI [4] was > 100 µM, the TGI [5] was > 100 µM and the TGI [6] was > 100 µM. For the same compound, the TGI [7] was > 100 µM and the TGI [8] was > 100 µM.

In the case of Clc1ccc(CCn2cncn2)c(Cl)c1, the TGI [1] is reported as > 100 µM, the TGI [2] is reported as > 100 µM and the TGI [3] is reported as > 100 µM. The TGI [4] was > 100 µM, the TGI [5] was > 100 µM and the TGI [6] was > 100 µM. For the same compound, the TGI [7] was > 100 µM and the TGI [8] was > 100 µM.

In the case of FC(F)(F)c1ccccc1C=NC12CC3CC(CC(C3)C1)C2, the TGI [2] is reported as > 100 µM, the TGI [3] is reported as > 100 µM and the TGI [4] is reported as > 100 µM. For the same compound, the TGI [5] was > 100 µM, the TGI [6] was > 100 µM and the TGI [7] was > 100 µM. The TGI [8] was > 100 µM.
